Assay results from paper PMC11507521, “Pyrimidine Derivatives as Selective COX-2 Inhibitors with Anti-Inflammatory and Antioxidant Properties” (International Journal of Molecular Sciences, 2024).

Biological target: T1, human serum albumin (HSA) (Homo sapiens, UniProt P02768)
T1 construct: gene ALB; serum albumin in HEPES pH 7.4
Assay: UV-Vis titration, Benesi-Hildebrand
Format: binding
Conditions: HEPES pH 7.4, 25 °C, DMSO < 1%
Text: UV-Vis titration, Benesi-Hildebrand on human serum albumin (HSA)

T1 sequence (P02768 25-609): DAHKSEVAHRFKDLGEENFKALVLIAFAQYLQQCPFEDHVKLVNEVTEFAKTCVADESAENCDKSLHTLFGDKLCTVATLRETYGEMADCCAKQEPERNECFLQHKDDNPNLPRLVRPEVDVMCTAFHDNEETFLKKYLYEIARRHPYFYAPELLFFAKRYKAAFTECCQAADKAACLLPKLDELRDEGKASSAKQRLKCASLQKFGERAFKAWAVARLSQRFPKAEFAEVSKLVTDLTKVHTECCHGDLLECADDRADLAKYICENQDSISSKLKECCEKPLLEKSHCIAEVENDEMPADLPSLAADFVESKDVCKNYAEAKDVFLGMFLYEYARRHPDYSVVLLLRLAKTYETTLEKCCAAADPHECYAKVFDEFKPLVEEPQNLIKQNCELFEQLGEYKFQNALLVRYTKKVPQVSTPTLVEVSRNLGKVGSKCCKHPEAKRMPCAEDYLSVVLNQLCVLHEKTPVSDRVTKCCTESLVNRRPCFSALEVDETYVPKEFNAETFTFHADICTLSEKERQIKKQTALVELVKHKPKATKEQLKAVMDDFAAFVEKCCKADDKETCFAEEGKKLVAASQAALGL

Row | binding constant (Kb) to HSA | binding constant (Kb) | SMILES
1 | 9.92 × 10^4 dm^3/mol | – | CCN(CC)CCNc1cc(NN=C2CCCc3cc(OC)ccc32)ncn1 [L1]
2 | 4.54 × 10^5 dm^3/mol | – | COc1ccc2c(c1)CCCC2=NNc1cc(NCCN(C)C)ncn1 [L2]
3 | – | 6.82 × 10^4 dm^3/mol | COc1ccc2c(c1)CCCC2=NNc1cc(NCCCN(C)C)ncn1 [L4]
